Laboratory results published in publication PMC10783087 (Microbiology Spectrum, 2023).
Converted amounts (≈) assume the structure as drawn.

Legend:
Erdman (mmpR5 E21K) = assay type: cell-based, M. tuberculosis
Mtb H37Rv = assay type: cell-based, M. tuberculosis
H37Rv = assay: microbe, parasite or virus in culture; assay type: cell-based; conditions: Mycobacterium tuberculosis, read-out: MIC
[1] = test system: mixed mmpL3 mutant pool (24 unique Mtb mmpL3 mutants); assay type: cell-based, M. tuberculosis
WT Mtb Erdman = assay type: cell-based, M. tuberculosis; conditions: area under the dose-response curve
H37Rv (rpoB S450L) = assay type: cell-based, M. tuberculosis
Mtb = conditions: cited from earlier work
H37Rv (gyrA D94K) = assay type: cell-based, M. tuberculosis

SMILES	EC50 (Erdman (mmpR5 E21K)) [µM]	Frequency of resistance, 2 × MIC (Mtb H37Rv)	Frequency of resistance, 8 × MIC (Mtb H37Rv)	Frequency of resistance, 16 × MIC (Mtb H37Rv)	MIC (H37Rv) [µg/mL]	Mixed mmpL3 AUC [1]	WT AUC (WT Mtb Erdman)	MIC, H37Rv (rpoB S450L) (H37Rv (rpoB S450L)) [µM]	in vitro frequency of resistance (FoR) (Mtb)	MIC, H37Rv (gyrA D94K) (H37Rv (gyrA D94K)) [µM]	activity (MIC) against the rpoB S450L strain (H37Rv (rpoB S450L)) [µg/mL]
COc1nc2ccc(Br)cc2cc1[C@@H](c1ccccc1)[C@@](O)(CCN(C)C)c1cccc2ccccc12 [Bedaquiline]	0.91	1.43 × 10^−7	3.57 × 10^−8	3.57 × 10^−8	2 (≈ 3.6 µM)	–	–	–	–	–	–
CC(C)/N=c1\cc2n(-c3ccc(Cl)cc3)c3ccccc3nc-2cc1Nc1ccc(Cl)cc1 [Clofazimine]	1.6	–	–	–	–	–	–	–	–	–	–
CC[C@@H](CO)NCCN[C@@H](CC)CO [Ethambutol]	–	3.61 × 10^−6	8.57 × 10^−7	1.79 × 10^−8	1 (≈ 4.89 µM)	–	–	–	–	–	–
Cc1ccc2nc(SCC(=O)N(C(C)C)C(C)C)[nH]c2c1 [HC2183]	–	–	–	–	–	34.08	101.7	–	–	–	–
NNC(=O)c1ccncc1 [Isoniazid]	–	5.0 × 10^−6	3.93 × 10^−6	2.71 × 10^−6	0.125 (≈ 0.911 µM)	–	–	0.4 (≈ 0.0549 µg/mL)	10^−6	0.2 (≈ 0.0274 µg/mL)	–
Cc1cc2nc(SCC(=O)N(C(C)C)C(C)C)[nH]c2cc1C [MSU-42766]	1.8	1.36 × 10^−6	8.0 × 10^−8	0	0.5 (≈ 1.57 µM)	73.44	169.9	0.8 (≈ 0.256 µg/mL)	–	1.5 (≈ 0.479 µg/mL)	0.25
CC(C)N(C(=O)CNc1nc2cc(Cl)c(Cl)cc2[nH]1)C(C)C [MSU-43165]	–	–	–	–	–	147.2	214.5	–	–	–	–
CC(C)N(C(=O)COc1nc2cc(Cl)c(Cl)cc2[nH]1)C(C)C [MSU-43170]	–	–	–	–	–	160.3	247.5	–	–	–	–
COc1c(N2C[C@@H]3CCCN[C@@H]3C2)c(F)cc2c(=O)c(C(=O)O)cn(C3CC3)c12 [Moxifloxacin]	–	–	–	–	–	–	–	0.15 (≈ 0.0602 µg/mL)	–	>5.0	–
CC1COc2c(N3CCN(C)CC3)c(F)cc3c(=O)c(C(=O)O)cn1c23 (centres unmarked) [Ofloxacin]	–	5.36 × 10^−7	7.14 × 10^−8	3.57 × 10^−8	1 (≈ 2.77 µM)	–	–	–	–	–	–
O=[N+]([O-])c1cn2c(n1)OC[C@@H](OCc1ccc(OC(F)(F)F)cc1)C2 [Pretomanid]	–	1.79 × 10^−6	8.57 × 10^−7	1.43 × 10^−7	0.5 (≈ 1.39 µM)	–	–	–	–	–	–
CO[C@H]1/C=C/O[C@@]2(C)Oc3c(C)c(O)c4c(O)c(c(/C=N/N5CCN(C)CC5)c(O)c4c3C2=O)NC(=O)/C(C)=C\C=C\[C@H](C)[C@H](O)[C@@H](C)[C@@H](O)[C@@H](C)[C@H](OC(C)=O)[C@@H]1C [Rifampicin]	–	5.36 × 10^−7	7.14 × 10^−8	3.57 × 10^−8	0.5 (≈ 0.608 µM)	–	–	–	–	–	–
